Results published in patent US10016422B2, “Nanocarrier drug delivery platform” (Oregon State University, priority 2015, dated 2018).
Converted amounts (≈) assume the structure as drawn.

Test: Intrinsic aqueous solubility and solubility increase in nanoparticles
Assay type: physicochemical
Conditions: for solubility: aqueous medium; for increase of solubility by incorporation into the nanoparticles: versus intrinsic aqueous solubility

In the case of `CC(C)(C)c1nc(-c2cccc(NS(=O)(=O)c3c(F)cccc3F)c2F)c(-c2ccnc(N)n2)s1` [DAB, dabrafenib], the solubility is reported as 1 µg/mL (≈ 1.92 µM) and the “increase of solubility by incorporation into the nanoparticles” value (“increase of solubility” below) is reported as 1000 fold.

With `CC(=O)O[C@@]12CO[C@@H]1C[C@H](O)[C@@]1(C)C(=O)[C@H](O)C3=C(C)[C@@H](OC(=O)[C@H](O)[C@@H](NC(=O)OC(C)(C)C)c4ccccc4)C[C@@](O)([C@@H](OC(=O)c4ccccc4)[C@H]21)C3(C)C` [DTX, docetaxel] the “increase of solubility” value was 455 fold.

With `CO[C@H]1C[C@@H]2CC[C@@H](C)[C@@](O)(O2)C(=O)C(=O)N2CCCC[C@H]2C(=O)O[C@H]([C@H](C)C[C@@H]2CC[C@@H](OCCO)[C@H](OC)C2)CC(=O)[C@H](C)/C=C(\C)[C@@H](O)[C@@H](OC)C(=O)[C@H](C)C[C@H](C)/C=C/C=C/C=C/1C` [EVR, everolimus] the solubility was 9.6 µg/mL (≈ 10 µM) and the “increase of solubility” value was 201 fold.

In the case of `O=c1cc(N2CCOCC2)oc2c(-c3ccccc3)cccc12` [LY, LY294002], the solubility is reported as 243 µg/mL (≈ 791 µM) and the “increase of solubility” value is reported as 8 fold.

In the case of `CC(=O)Nc1cccc(-n2c(=O)n(C3CC3)c(=O)c3c(Nc4ccc(I)cc4F)n(C)c(=O)c(C)c32)c1` [TRA, trametinib], the solubility is reported as 6 µg/mL (≈ 9.75 µM) and the “increase of solubility” value is reported as 221 fold.
